According to ChEMBL document CHEMBL4765464, “Discovery of BMS-986144, a Third-Generation, Pan-Genotype NS3/4A Protease Inhibitor for the Treatment of Hepatitis C Virus Infection” (J Med Chem, 2020):

How the values were obtained:
[1] = Inhibition of recombinant full length NS3/4A protease in Hepatitis C virus subtype 2a replicon infected in human HuH7 cells preincubated for 3 days followed by substrate addition and measured after 2 hrs by renilla luciferase reporter gene assay; format: cell-based; details: Huh-7
[2] = Metabolic stability in human liver microsomes assessed as half-life incubated for 5 to 45 mins in presence of NADPH by LC-MS analysis; format: ADME, Microsome; details: time 5-45 min
[3] = Inhibition of recombinant full length NS3/4A protease in Hepatitis C virus subtype 1a replicon infected in human HuH7 cells preincubated for 3 days followed by substrate addition and measured after 2 hrs by renilla luciferase reporter gene assay; format: cell-based; details: Huh-7
[4] = Inhibition of recombinant full length NS3/4A protease in Hepatitis C virus subtype 3a infected in human HuH7 cells using Ac-Asp-Glu-Asp (EDANS)-Glu-Glu-Abu-(COO) Ala-Ser-Lys (DABCYL)-NH2 as substrate by FRET assay; details: Huh-7
[5] = Inhibition of recombinant full length NS3/4A protease in Hepatitis C virus subtype 1b replicon infected in human HuH7 cells preincubated for 3 days followed by substrate addition and measured after 2 hrs by renilla luciferase reporter gene assay; format: cell-based; details: Huh-7
[6] = Inhibition of recombinant full length NS3/4A R155K mutant protease in Hepatitis C virus subtype 1a replicon infected in human HuH7 cells preincubated for 3 days followed by substrate addition and measured after 2 hrs by renilla luciferase reporter gene assay; format: cell-based; details: Huh-7
[7] = Inhibition of recombinant full length NS3/4A protease in Hepatitis C virus subtype 3a replicon infected in human HuH7 cells preincubated for 3 days followed by substrate addition and measured after 2 hrs by renilla luciferase reporter gene assay; format: cell-based; details: Huh-7
[8] = Inhibition of recombinant full length NS3/4A D168V mutant protease in Hepatitis C virus subtype 1b replicon infected in human HuH7 cells preincubated for 3 days followed by substrate addition and measured after 2 hrs by renilla luciferase reporter gene assay; format: cell-based; details: Huh-7
[9] = Cmax in rat at 5 mg/kg, po; format: ADME, organism-based; set-up: route oral, dose 5 mg/kg; details: in vivo
[10] = Drug concentration in rat liver at 5 mg/kg, po measured upto 24 hrs; format: ADME, organism-based; details: read-out: Ct
[11] = Ratio of drug concentration in liver to plasma in rat at 5 mg/kg, po measured upto 24 hrs; format: ADME, organism-based; details: liver and plasma
[12] = Clearance in rat at 1 mg/kg, iv; format: ADME, organism-based; details: in vivo
[13] = AUC (0 to 24 hrs) in rat at 5 mg/kg, po; format: ADME, organism-based; set-up: time < 24 hr, route oral, dose 5 mg/kg; details: in vivo
[14] = Drug concentration in rat plasma at 5 mg/kg, po measured upto 24 hrs; format: ADME, organism-based; details: read-out: Ct
[15] = Oral bioavailability in rat at 5 mg/kg; format: ADME, organism-based; details: in vivo
[16] = Half life in rat at 1 mg/kg, iv; format: ADME, organism-based; details: in vivo
Cytochrome P450 3A4 [17] = molecular target: T1, Cytochrome P450 3A4 (Homo sapiens, UniProt P08684); experiment: Inhibition of human CYP3A4 in human pooled liver microsomes at 0.002 to 40 uM in presence of midazolam as substrate preincubated in presence of NADPH followed by addition of substrate by LC-MS/MS analysis; format: ADME; details: TDE = time-dependent effect, dose 0.002-40 µM, time <=30 min
T1 sequence (P08684 whole entry): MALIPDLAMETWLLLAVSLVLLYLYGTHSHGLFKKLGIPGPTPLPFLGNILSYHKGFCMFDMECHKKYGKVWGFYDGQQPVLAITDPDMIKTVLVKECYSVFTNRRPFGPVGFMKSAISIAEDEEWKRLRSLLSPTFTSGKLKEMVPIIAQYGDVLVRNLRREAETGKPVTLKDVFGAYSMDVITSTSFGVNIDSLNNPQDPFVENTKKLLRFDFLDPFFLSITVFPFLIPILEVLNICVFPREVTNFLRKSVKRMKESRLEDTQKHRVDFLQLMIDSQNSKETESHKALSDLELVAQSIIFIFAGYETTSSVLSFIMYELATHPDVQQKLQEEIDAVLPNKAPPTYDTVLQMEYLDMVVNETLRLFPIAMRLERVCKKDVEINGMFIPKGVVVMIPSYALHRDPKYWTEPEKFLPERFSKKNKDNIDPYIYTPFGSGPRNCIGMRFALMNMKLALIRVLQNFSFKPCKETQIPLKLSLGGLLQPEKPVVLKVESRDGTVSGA

Cytochrome P450 3A4 [18] = molecular target: T1, Cytochrome P450 3A4; experiment: Inhibition of human CYP3A4 in human pooled liver microsomes at 0.002 to 40 uM in presence of testosterone as substrate preincubated in presence of NADPH followed by addition of substrate by LC-MS/MS analysis; format: ADME; details: TDE = time-dependent effect, dose 0.002-40 µM, time <=30 min

| Structure (SMILES) | EC50 [1] | half-life [2] | EC50 [3] | IC50 [4] | EC50 [5] | EC50 [6] | EC50 [7] | EC50 [8] | Cmax [9] | concentration at 24 h [10] | Kp at 24 h [11] | clearance [12] | AUC(0-t) at 24 h [13] | concentration at 24 h [14] | bioavailability [15] | half-life [16] | inhibition (INH) (Cytochrome P450 3A4 [17]) | inhibition (INH) (Cytochrome P450 3A4 [18]) |
| --- | --- | --- | --- | --- | --- | --- | --- | --- | --- | --- | --- | --- | --- | --- | --- | --- | --- | --- |
| C[C@@H]1CC/C=C\[C@@H]2C[C@@]2(C(=O)NS(=O)(=O)C2CC2)NC(=O)[C@@H]2C[C@@H](Oc3nccc4ccc(F)cc34)CN2C(=O)[C@@H](NC(=O)OC(C)(C)C(F)(F)F)[C@H](C)C1 | 3 nM | 10 min | 1 nM | 20 nM | 0.3 nM | 21 nM | 196 nM | – | – | – | – | – | – | – | – | – | – | – |
| COc1cnc(O[C@@H]2C[C@H]3C(=O)N[C@]4(C(=O)NS(=O)(=O)C5CC5)C[C@H]4/C=C\CCCC[C@@H](C)[C@H](NC(=O)OC(C)(C)C(F)(F)F)C(=O)N3C2)c2ccccc12 | 1.5 nM | 18.6 min | 0.8 nM | 2.2 nM | 0.3 nM | 11.5 nM | 37.3 nM | 21 nM | – | – | – | – | – | – | – | – | – | – |
| CC[C@@H]1C[C@H](C)CC/C=C\[C@@H]2C[C@@]2(C(=O)NS(=O)(=O)C2CC2)NC(=O)[C@@H]2C[C@@H](Oc3ncc(OC)c4ccccc34)CN2C(=O)[C@H]1NC(=O)OC(C)(C)C(F)(F)F | 1.5 nM | 37.7 min | 1 nM | 1.2 nM | 0.5 nM | 8.3 nM | 8 nM | 17 nM | 2950 nM | 2360 nM | 33 | 5.73 mL/min/kg | 18.8 µM·h | 72 nM | 61% | 288 min | – | – |
| COc1cnc(O[C@@H]2C[C@H]3C(=O)N[C@]4(C(=O)NS(=O)(=O)C5CC5)C[C@H]4/C=C\CCCC[C@@H](C)[C@H](NC(=O)OC(C)(C)C(F)(F)F)C(=O)N3C2)c2cc(Cl)ccc12 | 1.7 nM | 30.3 min | 0.6 nM | 12.8 nM | 0.48 nM | 17.9 nM | 42.5 nM | 6.8 nM | – | – | – | – | – | – | – | – | – | – |
| CC[C@@H]1C[C@H](C)CC/C=C\[C@@H]2C[C@@]2(C(=O)NS(=O)(=O)C2(C)CC2)NC(=O)[C@@H]2C[C@@H](Oc3ncc(OC)c4ccccc34)CN2C(=O)[C@H]1NC(=O)OC(C)(C)C(F)(F)F | 1.1 nM | 23 min | 0.8 nM | 1.9 nM | 0.4 nM | 5.4 nM | 7.4 nM | 5.4 nM | 3030 nM | 2670 nM | 12 | 1.7 mL/min/kg | 22.5 µM·h | 229 nM | 42% | 438 min | – | – |
| COc1cnc(O[C@@H]2C[C@H]3C(=O)N[C@]4(C(=O)NS(=O)(=O)C5CC5)C[C@H]4/C=C\CCCC[C@@H](C)[C@H](NC(=O)OC(C)(C)C)C(=O)N3C2)c2cc(Cl)ccc12 | 1.1 nM | 11.5 min | 0.9 nM | 11 nM | 0.25 nM | 10.7 nM | 75.5 nM | 1.9 nM | – | – | – | – | – | – | – | – | – | – |
| CC[C@@H]1C[C@H](C)CC/C=C\[C@@H]2C[C@@]2(C(=O)NS(=O)(=O)C2(C)CC2)NC(=O)[C@@H]2C[C@@H](Oc3nccc4cc(O)c(F)cc34)CN2C(=O)[C@H]1NC(=O)OC(C)(C)C(F)(F)F | 1.9 nM | 37 min | – | – | 1.3 nM | 3.9 nM | 48 nM | 9.5 nM | – | – | – | – | – | – | – | – | Tde | Tde |
